Reference: patent US20240268388A1, “AGRICULTURAL AND HORTICULTURAL FUNGICIDAL COMPOSITION” (NIPPON SODA CO., LTD., priority 2021, published 2024)

How the values were obtained:
[1] = tested on: wheat leaf blight pathogen (Septoria tritici); experiment: Fungicidal test for wheat leaf blight (microplate, turbidity at 405 nm); assay type: cell-based; details: for inhibition at 6.3 ppm / inhibition at 12.5 ppm / inhibition at 25 ppm / inhibition at 50 ppm / inhibition at 100 ppm: component (I) alone
Description: Compounds of component (I) and component (II) were dissolved in dimethyl sulfoxide at 10,000 ppm and diluted with water to the prescribed concentration to prepare a chemical agent solution. A mixture of the prescribed concentration of the chemical agent solution, wheat leaf blight pathogen (Septoria tritici) conidia, and malt extract was prepared on a microplate and incubated at 20° C. in the dark for 3 days. The turbidity at a wavelength of 405 nm was measured with a microplate reader, and the growth of wheat leaf blight pathogen was compared with that of no treatment control to determine the growth inhibition rate. The results are shown in Tables 2 to 7, along with the expected values calculated as below.
Each expected value was calculated from the fungicidal efficacy of a single application of the compound of component (I) and the fungicidal efficacy of a single application of compound of component (II) by using Colby's equation (S. R. Colby, Calculating synergistic and antagonistic responses of herbicide combinations, Weeds, 15, 20-22 pp (1967)).
[formula] • where E represents the expected value of the growth inhibition rate (%) for the composition containing component (I) and component (II), M represents the growth inhibition rate (%) when the component (I) is used alone, and N represents the growth inhibition rate (%) when the component (II) is used alone. When the measured growth inhibition rate (%) for the composition containing component (I) and component (II) is greater than the expected value E, the composition containing components (I) and component (II) should exert a synergistic effect.

[2] = tested on: soybean rust pathogen (Phakopsora pachyrhizi); experiment: Soybean rust control test (leaf discs); assay type: in vivo
Description: Compounds of component (I) and component (II) were dissolved in dimethyl sulfoxide and diluted with water to the prescribed concentration to prepare a chemical agent solution. A mixture of the prescribed concentration of the chemical agent solution and sterile water was prepared on a microplate, and leaf discs cut from soybean leaves were floated on the microplate. Uredospores of soybean rust pathogen (Phakopsora pachyrhizi) were inoculated and incubated at 25° C. for 9 days. The area percentage of lesions was determined by observing uredospore-forming lesions on the leaf discs, and the control value was calculated. The control value was calculated by the following formula:
Control value (%)=100−{Area percentage of lesions in treatment plot/Area percentage of lesions in untreatment plot}×100.
The results are shown in Tables 8 to 18, along with the expected values calculated as below. Each expected values was calculated from the fungicidal efficacy of a single application of compound of component (I) and the fungicidal efficacy of a single application of compound of component (II) by using Colby's equation:
[formula] • where E represents the expected value of the control value for the composition containing component (I) and component (II), M represents the control value (%) when the component (I) is used alone, and N represents the control value (%) when the component (II) is used alone. When the measured control value for the composition containing component (I) and component (II) is greater than the expected value E, the composition containing component (I) and composition (II) should exert a synergistic effect.

[3] = Table 15, component (II) alone (component (I): None): Azoxystrobin 0.0001, Inpyrfluxam 0.000025, Chlorothalonil 0.0063, Difenoconazole 0.000025, Cyproconazole 0.000025, Tebuconazole 0.000025, Trifloxystrobin 0.0001, Pyraclostrobin 0.0001, Fluazinam 0.0063, Fluxapyroxad 0.000025, Prothioconazole 0.000025, Florylpicoxamid 0.0001, Benzovindiflupyr 0.000025, Mancozeb 0.0063 ppm
[4] = Table 18, component (II) alone (component (I): None): Azoxystrobin 0.0001, Inpyrfluxam 0.000025, Chlorothalonil 0.0063, Difenoconazole 0.000025, Cyproconazole 0.000025, Tebuconazole 0.000025, Trifloxystrobin 0.0001, Pyraclostrobin 0.0001, Fluazinam 0.0063, Fluxapyroxad 0.000025, Prothioconazole 0.000025, Florylpicoxamid 0.0001, Benzovindiflupyr 0.000025, Mancozeb 0.0063 ppm
[5] = Zymoseptoria tritici, component (II) alone, 0.02 ppm, read-out: growth inhibition rate
[6] = Zymoseptoria tritici, component (II) alone, read-out: growth inhibition rate
[7] = Zymoseptoria tritici, component (II) alone, 0.04 ppm, read-out: growth inhibition rate
[8] = Table 14, component (II) alone (component (I): None): Inpyrfluxam 0.00025, Chlorothalonil 0.006, Thiophanate-methyl 0.0001, Tebuconazole 0.000025, Trifloxystrobin 0.0001, Fluazinam 0.006, Prothioconazole 0.000025, Florylpicoxamid 0.0001, Metominostrobin 0.0004 ppm
[9] = Table 16, component (II) alone (component (I): None): Inpyrfluxam 0.000025, Chlorothalonil 0.006, Thiophanate-methyl 0.0001, Tebuconazole 0.000025, Trifloxystrobin 0.0001, Fluazinam 0.006, Prothioconazole 0.000025, Florylpicoxamid 0.0001, Metominostrobin 0.0004 ppm
[10] = Table 17, component (II) alone (component (I): None): Inpyrfluxam 0.000026, Chlorothalonil 0.02, Thiophanate-methyl 0.0004, Tebuconazole 0.0001, Trifloxystrobin 0.0001, Fluazinam 0.006, Prothioconazole 0.000025, Florylpicoxamid 0.0001, Metominostrobin 0.0004 ppm
[11] = Zymoseptoria tritici, read-out: growth inhibition rate
[12] = component (I) alone, 0.0063 ppm
[13] = Zymoseptoria tritici, component (II) alone, 0.25 ppm, read-out: growth inhibition rate
[14] = Zymoseptoria tritici, component (II) alone, 16 ppm, read-out: growth inhibition rate
[15] = Zymoseptoria tritici, component (II) alone, 0.004 ppm, read-out: growth inhibition rate

## Cn1cc(C(=O)Nc2cccc3c2[C@@H]2CC[C@H]3C2=C(Cl)Cl)c(C(F)F)n1 (racemic) [Benzovindiflupyr, benzovindiflupyr, reference compound]
[1]; component (II) alone, 0.01 ppm
  growth inhibition rate: 48%
[1]; component (II) alone, 0.04 ppm
  growth inhibition rate: 65%
[2]; [3]
  control value: 50%
[2]; [4]
  control value: 50%

## Fc1ccc([C@]2(Cn3cncn3)O[C@H]2c2ccccc2Cl)cc1 (racemic) [Epoxiconazole, epoxiconazole]
[1]; [5]
  inhibition at 0.02 ppm: 27%
[1]; [6]
  inhibition at 64 ppm: 94%

## CO/C=C(/C(=O)OC)c1ccccc1Oc1cc(Oc2ccccc2C#N)ncn1 [Azoxystrobin, azoxystrobin, reference compound]
[1]; component (II) alone, 0.06 ppm
  growth inhibition rate: 10%
[1]; component (II) alone, 1 ppm
  growth inhibition rate: 10%
[2]; [3]
  control value: 33%
[2]; [4]
  control value: 0%

## Cn1cc(C(=O)Nc2ccc(F)cc2-c2ccc(Cl)c(Cl)c2)c(C(F)F)n1 [Bixafen, bixafen]
[1]; component (II) alone, 0.004 ppm
  growth inhibition rate: 27%

## N#Cc1c(Cl)c(Cl)c(Cl)c(C#N)c1Cl [Chlorothalonil, chlorothalonil, reference compound]
[1]; Zymoseptoria tritici, component (II) alone, 0.001 ppm, read-out: growth inhibition rate
  inhibition at 0.001 ppm: 8%
[1]; [5]
  inhibition at 0.02 ppm: 2%
[1]; [7]
  inhibition at 0.04 ppm: 9%
[2]; [8]
  control value: 44%
[2]; [3]
  control value: 33%
[2]; [9]
  control value: 44%
[2]; [10]
  control value: 75%
[2]; [4]
  control value: 0%

## CCON=C1CN(C(=O)Cc2ccc(-c3noc(C(F)(F)F)n3)cc2)C1 [Compound 1]
[1]; [11]
  inhibition at 6.3 ppm: 44%
  inhibition at 12.5 ppm: 58%
  inhibition at 25 ppm: 70%
  inhibition at 50 ppm: 82%
  inhibition at 100 ppm: 90%
[2]; [12]
  control value: 12%
[2]; component (I) alone, 0.025 ppm
  control value: 48%
[2]; component (I) alone, 0.1 ppm
  control value: 75%
[2]; component (I) alone, 0.4 ppm
  control value: 99%

## O=C(Cc1ccc(-c2noc(C(F)(F)F)n2)cc1)N1CCC(=NOC2CCCCO2)CC1 (stereo not shown) [Compound 2]
[1]; [11]
  inhibition at 6.3 ppm: 34%
  inhibition at 12.5 ppm: 46%
  inhibition at 25 ppm: 52%
  inhibition at 50 ppm: 59%
  inhibition at 100 ppm: 62%

## O=C(Cc1ccc(-c2noc(C(F)(F)F)n2)cc1)N1CC(=NOCC(F)F)C1 [Compound 4]
[1]; [11]
  inhibition at 6.3 ppm: 36%
  inhibition at 12.5 ppm: 49%
  inhibition at 25 ppm: 75%
  inhibition at 50 ppm: 99%
  inhibition at 100 ppm: 100%
[2]; [12]
  control value: 18%
[2]; component (I) alone, 0.025 ppm
  control value: 28%
[2]; component (I) alone, 0.1 ppm
  control value: 67%
[2]; component (I) alone, 0.4 ppm
  control value: 97%

## O=S(=O)([O-])[O-].[Cu+2] [Copper sulfate, copper sulfate]
[1]; component (II) alone, 0.25 ppm
  growth inhibition rate: 8%
[1]; component (II) alone, 1 ppm
  growth inhibition rate: 24%
[1]; component (II) alone, 16 ppm
  growth inhibition rate: 73%

## Cc1ccc(-c2c(Cl)nc(C#N)n2S(=O)(=O)N(C)C)cc1 [Cyazofamid, cyazofamid]
[1]; [13]
  inhibition at 0.25 ppm: 0%
[1]; [6]
  inhibition at 4 ppm: 6%
  inhibition at 64 ppm: 27%
[1]; [14]
  inhibition at 16 ppm: 4%

## CC(C1CC1)C(O)(Cn1cncn1)c1ccc(Cl)cc1 (stereo not shown) [Cyproconazole, cyproconazole, reference compound]
[1]; [13]
  inhibition at 0.25 ppm: 15%
[1]; Zymoseptoria tritici, component (II) alone, 1 ppm, read-out: growth inhibition rate
  inhibition at 1 ppm: 1%
[2]; [3]
  control value: 33%
[2]; [4]
  control value: 0%
[2]; component (II) alone, 0.0001 ppm
  control value: 88%

## CC1COC(Cn2cncn2)(c2ccc(Oc3ccc(Cl)cc3)cc2Cl)O1 (stereo not shown) [Difenoconazole, difenoconazole]
[1]; [15]
  inhibition at 0.004 ppm: 75%
[1]; [7]
  inhibition at 0.04 ppm: 75%
[1]; [6]
  inhibition at 4 ppm: 85%
[1]; [14]
  inhibition at 16 ppm: 83%
[1]; Zymoseptoria tritici, component (II) alone, .0002 ppm (also printed 0002), read-out: growth inhibition rate
  inhibition at 0.0002 ppm: 69%
[2]; [3]
  control value: 75%
[2]; [4]
  control value: 0%

## O=[N+]([O-])c1cc(C(F)(F)F)c(Cl)c([N+](=O)[O-])c1Nc1ncc(C(F)(F)F)cc1Cl [Fluazinam, fluazinam, reference compound]
[1]; [15]
  inhibition at 0.004 ppm: 0%
[2]; [8]
  control value: 16%
[2]; [3]
  control value: 0%
[2]; [9]
  control value: 16%
[2]; [10]
  control value: 16%
[2]; [4]
  control value: 50%

## CO/C=C(/C(=O)OC)c1ccccc1COc1cccc(C(F)(F)F)n1 [Picoxystrobin, picoxystrobin]
[1]; component (II) alone, 0.02 ppm
  growth inhibition rate: 2%
[1]; component (II) alone, 0.06 ppm
  growth inhibition rate: 3%
[1]; component (II) alone, 0.25 ppm
  growth inhibition rate: 8%
[1]; component (II) alone, 1 ppm
  growth inhibition rate: 8%

## CCCOC/C(=N\c1ccc(Cl)cc1C(F)(F)F)n1ccnc1 [Triflumizole, triflumizole]
[1]; Zymoseptoria tritici, component (II) alone, 0.06 ppm, read-out: growth inhibition rate
  inhibition at 0.06 ppm: 12%
[1]; [13]
  inhibition at 0.25 ppm: 11%
